Assay results from patent US10544110B2, “Small molecule inhibitors of the nuclear translocation of androgen receptor for the treatment of castration-resistant prostate cancer” (University of Pittsburgh-Of the Commonwealth System of …, priority 2013, dated 2020).

What was measured:
22Rv 1 xenograft tumors = experiment: 22Rv1 xenograft tumor growth; assay type: in vivo; details: castrated SCID mice, daily IP 10 mg/kg and 75 mg/kg
Method: FIG. 11 is a graph showing the effect of compound JJ-450 at indicated concentrations on 22Rv 1 xenograft tumor volume. JJ-450 was injected i.p. daily.
22Rv 1 xenograft tumors were established in SCID mice by subcutaneous injection of 2×10^6 cells in Matrigel. Once the tumors reached ˜150 μL in volume, the mice were castrated and randomized into 3 groups for daily IP injection of vehicle (n=11), 10 mg/kg (n=11) and 75 mg/kg (n=11) groups. Injection of JJ-450 was initiated at time of castration. Tumor volumes were measured 3 times every week. […] Error bars, SEM.

LNCaP xenograft tumors = experiment: LNCaP xenograft tumor growth; assay type: in vivo; details: castrated SCID mice, oral gavage 10 or 75 mg/kg or IP 10 mg/kg, started 2 weeks after castration
Method: FIG. 12 is a graph showing the effect of compound JJ-450 at indicated concentrations and administration route on LNCaP xenograft tumor volume. JJ-450 was administered 6 times, from Monday to Saturday, every week
LNCaP xenograft tumors were established in SCID mice by subcutaneous injection of 2×10^6 cells in Matrigel. Once the tumors reached ˜200 ul in volume, the mice were castrated and randomized into 4 groups: oral gavage of vehicle (n=6), oral gavage at 10 mg/kg (n=6), IP injection at 10 mg/kg (n=8), and oral gavage at 75 mg/kg (n=7) groups. Administration of JJ-450 was started 2 weeks after castration. Tumor volumes were measured twice every week. […] Error bars, SEM.

[1] = system: AR transcriptional activity (PSA promoter activity); experiment: PSA luciferase assay in C4-2-PSA-rl cells (Dual-Glo luciferase system); details: for IC50 / activity in PSA luciferase assay (in words): C4-2-PSA-rl cells; for IC50: 24 h treatment, 1 nM R1881, mean and SD of 2-6 independent experiments; for activity in PSA luciferase assay (in words): up to 25 μM
Method: C4-2-PSA-rl cells were seeded in 24-well plates such that they reached 75-80% cell monolayer density after 24 h. […] Each compound was tested in at least two independent experiments. Luciferase activity was assayed using the Dual-Luciferase® Reporter Assay System (Promega) using LMax II Microplate Reader (Molecular Devices). The luciferase assay results were acquired using SoftMax Pro5.45 software (Molecular Devices) and analyzed using GraphPad Prism. PSA6.1-luc activity was normalized to the Renilla luciferase activity. Relative luciferase activity was calculated as the quotient of androgen-induced PSA-firefly/Renilla luciferase activity. Since PSA promoter activity correlates to AR transcriptional activity, inhibition of AR will result in decreased PSA-luciferase activity.

22Rv1 = experiment: Effectiveness against androgen-dependent prostate cancer cell line 22Rv1; assay type: cell-based

Structure (SMILES)	IC50 ([1]; 24 h) [µM]	activity in PSA luciferase assay (in words) [1]	also measured
Cc1ccc(Cl)cc1N1CCN(C(=O)[C@@H]2C[C@@H]2c2ccc(F)cc2)CC1 (racemic) [JJ-450, (4-(5-Chloro-2-methylphenyl)piperazin-1-yl)((1RS,2SR)-2-(4-fluorophenyl)cyclopropyl)-methanone]	2.7 ± 1.1	significantly more potent than 1	22Rv1 xenograft tumor growth (tumor volume) (22Rv 1 xenograft tumors): significantly inhibited tumor growth; LNCaP xenograft tumor growth (tumor volume) (LNCaP xenograft tumors): significantly inhibited tumor growth
CNC(=O)c1ccc(N2C(=S)N(c3ccc(C#N)c(C(F)(F)F)c3)C(=O)C2(C)C)cc1F [MDV3100, enzalutamide]			effectiveness against 22Rv1 (22Rv1): ineffective
Cc1ccccc1N1CCN(C(=O)CSCc2ccccc2)CC1 [Compound 7, 2-(Benzylthio)-1-(4-(o-tolyl)piperazin-1-yl)ethanone]	14		IC50 [1]: 13.7 ± 0.8 µM
Cc1ccccc1N1CCN(CCSCc2c(C)noc2C)CC1 [Compound 6, 3,5-Dimethyl-4-(((2-(4-(o-tolyl)piperazin-1-yl)ethyl)thio)methyl)isoxazole]	10.8		increase in activity relative to amide 5b ([1]; amine 6 vs amide 5b): 1.3 fold
Cc1ccccc1N1CCN(C(=O)CSc2ccccc2)CC1 [Compound 9, 2-(Phenylthio)-1-(4-(o-tolyl)piperazin-1-yl)ethan-1-one]	> 25	abolished activity	
Cc1ccccc1N1CCN(C(=O)NCSCc2c(C)noc2C)CC1 [Compound 20a, N-((((3,5-Dimethylisoxazol-4-yl)methyl)thio)methyl)-4-(o-tolyl)piperazine-1-carboxamide]	> 25	inactive	
Cc1ccccc1N1CCN(C(=O)CCCc2ccccc2)CC1 [Compound 8, 4-Phenyl-1-(4-(o-tolyl)piperazin-1-yl)butan-1-one]	14		IC50 [1]: 14.4 ± 3.7 µM
